Measured values taken from US20120129811A1, “TRICYCLIC INHIBITORS OF PRO-MATRIX METALLOPROTEINASE ACTIVATION” (priority 2010, published 2012).
Structures can show the parent of a compound that is named as a salt.

Experiments:
[1] = molecular target: T1, proMMP9(67-444;ΔFnII) (SEQ ID NO:5) (Homo sapiens, UniProt P14780, DEL216-390); assay: ThermoFluor binding assay with proMMP9(67-444;ΔFnII)
T1 construct: start methionine (N); made in house; host or cells: E. coli BL21(DE3) RIL
T1 sequence (P14780 with tags, fused parts or gaps DEL216-390): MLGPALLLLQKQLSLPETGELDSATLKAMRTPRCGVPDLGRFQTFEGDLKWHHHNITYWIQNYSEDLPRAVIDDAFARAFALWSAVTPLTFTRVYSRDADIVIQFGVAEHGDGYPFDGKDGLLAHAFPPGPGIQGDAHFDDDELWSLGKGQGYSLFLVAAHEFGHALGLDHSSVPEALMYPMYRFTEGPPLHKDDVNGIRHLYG
In short: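 Thermal shift of 3.5 μM proMMP9(67-444;ΔFnII), desalted beforehand, with 50 μM 1,8-ANS in 50 mM HEPES pH 7.0, 100 mM NaCl, 2.5 mM MgCl2, 300 μM CaCl2, 0.001% Tween-20. Heated 40–90 °C at 1 °C/min, fluorescence read at 500 nm; binding fitted from Tm shifts using DSC- and ThermoFluor-derived unfolding parameters.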

[2] = molecular target: T2, proMMP13(1-268) (SEQ ID NO:7) (Homo sapiens, UniProt P45452); assay: ThermoFluor binding assay with proMMP13(1-268)
T2 construct: 6xHis (C); made in house; host or cells: HEK293 (transient, secreted)
In short: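 Thermal shift of desalted proMMP13(1-268) at 3.5 μM final, in 50 mM HEPES pH 7.0, 100 mM NaCl, 0.001% Tween-20, 2.5 mM MgCl2, 300 μM CaCl2, with 25 μM 1,8-ANS. Serially diluted compounds heated 40–90° C. at 1° C./min, fluorescence read at 500±25 nm. Tm fitted; binding modeled using DSC-derived thermodynamic parameters.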

[3] = molecular target: T3, proMMP9(20-445;ΔFnII) (SEQ ID NO:6) (Homo sapiens, UniProt P14780, DEL216-390); assay: ThermoFluor binding assay with proMMP9(20-445;ΔFnII)
T3 construct: start methionine (N); made in house; host or cells: E. coli BL21(DE3) RIL
T3 sequence (P14780 with tags, fused parts or gaps DEL216-390): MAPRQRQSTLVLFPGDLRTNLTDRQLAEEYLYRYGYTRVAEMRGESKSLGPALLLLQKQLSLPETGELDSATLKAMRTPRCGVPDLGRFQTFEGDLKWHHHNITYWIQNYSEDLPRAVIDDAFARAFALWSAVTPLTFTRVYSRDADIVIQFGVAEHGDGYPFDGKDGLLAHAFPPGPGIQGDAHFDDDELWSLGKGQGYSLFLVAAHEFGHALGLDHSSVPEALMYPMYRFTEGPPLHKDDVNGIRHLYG
In short: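 Protein thermal stability was measured with 2.8 μM proMMP9(20-445;ΔFnII) and 50 μM 1,8-ANS in 50 mM HEPES pH 7.0, 100 mM NaCl, 0.001% Tween-20, 2.5 mM MgCl2, 300 μM CaCl2, across serial compound dilutions. Samples were heated 40–90° C at 1° C/min with fluorescence read at 500 nm. Tm was fitted, and binding was derived from thermodynamic parameters obtained by DSC and ThermoFluor.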

[4] = molecular target: T4, proMMP13(1-268) activation by plasmin (Homo sapiens, UniProt P45452); assay: ProMMP13/Plasmin P126 Activation Assay; format: biochemical
T4 construct: 6xHis (C); made in house; host or cells: HEK293 (proMMP13)
Experimental: ProMMP13/Plasmin P126 Activation Assay
On the day of assay, proMMP13(1-268) (SEQ ID NO:7) purified from HEK293 cells and plasmin were diluted to 160 nM and 320 nM, respectively, in assay buffer. The reaction volume was 50 μL. […] The plate was sealed and incubated for 40 min at 37° C. […] Plasmin was not reactive towards P-126 substrate under these conditions.

[5] = molecular target: T5, full-length proMMP9(1-707) activation by catalytic MMP3 (Homo sapiens, UniProt P14780, R574P); assay: proMMP9/MMP3 P126 Activation Assay; format: biochemical
T5 construct: made in house; host or cells: proMMP9: HEK293 (secreted); MMP3: E. coli
Experimental: proMMP9/MMP3 P126 Activation Assay
The reaction volume was 50 μL. […] Reactivity of residual MMP3 towards P-126 substrate was minimal under these conditions.

T5 sequence (P14780 20-707 R574P): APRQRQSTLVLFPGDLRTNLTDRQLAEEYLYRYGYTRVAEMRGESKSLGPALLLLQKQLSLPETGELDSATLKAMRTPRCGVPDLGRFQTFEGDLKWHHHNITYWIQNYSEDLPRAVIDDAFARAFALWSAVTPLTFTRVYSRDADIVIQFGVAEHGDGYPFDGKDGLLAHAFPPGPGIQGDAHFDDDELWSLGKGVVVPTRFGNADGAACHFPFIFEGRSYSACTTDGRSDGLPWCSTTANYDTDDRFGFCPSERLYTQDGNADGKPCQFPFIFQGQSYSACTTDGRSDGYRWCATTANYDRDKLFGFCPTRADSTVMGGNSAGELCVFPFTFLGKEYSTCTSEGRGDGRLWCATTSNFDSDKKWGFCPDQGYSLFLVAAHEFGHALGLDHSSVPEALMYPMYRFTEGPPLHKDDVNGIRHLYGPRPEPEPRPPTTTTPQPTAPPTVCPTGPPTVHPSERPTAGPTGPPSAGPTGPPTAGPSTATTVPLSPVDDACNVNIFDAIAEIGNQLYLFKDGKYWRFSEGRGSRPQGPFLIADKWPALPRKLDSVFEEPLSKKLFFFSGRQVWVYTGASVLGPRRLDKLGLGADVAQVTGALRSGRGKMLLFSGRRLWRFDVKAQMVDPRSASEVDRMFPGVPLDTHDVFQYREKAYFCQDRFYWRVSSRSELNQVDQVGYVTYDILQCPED

Row | Kd [1] [nM] | Kd [2] [nM] | Kd [3] [nM] | IC50 [4] [nM] | IC50 [5] [nM] | SMILES
1 | 310 | 930 | 120 | 4500 | 190 | CC(C)Oc1ccc(C(N)=O)cc1Nc1nc2c(ccc3c2cnn3C)s1 [Example 30, 4-Isopropoxy-3-(6-methyl-6H-3-thia-1,6,7-triaza-as-indacen-2-ylamino)-benzamide.HCl]
2 | 490 | 580 | 86 | 1100 | 100 | CCn1cnc2ccc3sc(Nc4cc(C(N)=O)ccc4OC(C)C)nc3c21 [Example 33, 3-(8-Ethyl-8H-imidazo[4′,5′:3,4]-benzo[2,1-d]thiazol-2-ylamino)-4-isopropoxy-benzamide.HCl]
3 | 400 | 8300 | 3100 | > 20000 | 200 | COc1cc(C(N)=O)ccc1Nc1nc2c(ccc3c2ncn3C)s1 [Example 51, 3-Methoxy-4-(6-methyl-6H-imidazo[4′,5′:3,4]benzo[2,1-d]thiazol-2-ylamino)-benzamide.HCl]
4 | 35 | 2800 | 230 | ~6000 | 70 | COc1ccc(F)cc1Nc1nc2c(ccc3c2ncn3C)s1 [Example 57, (5-Fluoro-2-methoxy-phenyl)-(6-methyl-6H-imidazo[4′,5′:3,4]benzo[2,1-d]thiazol-2-yl)-amine.HCl]
5 | 780 | 6800 | 3100 | 2800 | 330 | CC(C)Oc1ccc(C(N)=O)cc1Nc1nc2c(ccc3ccncc32)s1 [Example 89, 4-Isopropoxy-3-(thiazolo[5,4-h]isoquinolin-2-ylamino)-benzamide.TFA]
6 | 3000 | 2700 | 280 | 2500 | 200 | CC(C)Oc1ccc(C(N)=O)cc1Nc1nc2c(ccc3cnccc32)s1 [Example 90, 4-Isopropoxy-3-(thiazolo[4,5-f]isoquinolin-2-ylamino)-benzamide.TFA]
